Laboratory results reported in patent publication US20210393932A1, “DERMAL PATCHES AND GLASS SWABS FOR APPLICATION OF TOPICAL IMMUNOSENSITIZERS” (Squarex, LLC, priority 2020, published 2021).
“Also recorded” adds a separate entry of the source.

Legend:
[1] = system: herpes labialis outbreaks; assay: Placebo-controlled Phase 1 clinical trial of SADBE in subjects with frequent herpes labialis outbreaks; format: in vivo, human
Method: Methods This exploratory, double-blind, randomized placebo-controlled study was conducted between November 2013 and September 2015 at Massachusetts General Hospital. Healthy adults, ages 18 to 69 years, who self-reported having 6 or more episodes of herpes labialis in the previous 12 months received a topical sensitization dose on the arm at the initial visit, and then received a topical treatment dose applied to a lesion during the first 2 herpes labialis episodes occurring at least 2 weeks after the sensitization dose. Participants were randomized 1:1:1 to receive dimethyl sulfoxide alone (placebo), 2.0% SADBE sensitization and 0.5% SADBE treatment doses, or 2.0% SADBE sensitization, 0.2% SADBE treatment doses. The study was approved by Partners Human Research Committee institutional review board, and all participants provided their written informed consent (clinicaltrials.gov identification No. NCT01971385). Results. Fifty-four patients were enrolled into the study; 43 patients had at least 1 form of contact (either in person or by phone) with research staff following the sensitizing dose and were included in the efficacy data analysis. The data analyzed involves 9 males and 34 females.
One planned primary end point was days to the next herpes labialis outbreak after the last treatment dose. […] Thus, we analyzed time to next outbreak after the sensitization dose. Data from patients who never experienced a first outbreak following sensitization were censored on the last available follow-up date and Kaplan-Meier time-to-event curves were estimated and graphed (FIG. 3). The median time to event for the placebo group was 40 days versus more than 122 days for the 2.0% SADBE group, which difference was highly significant (P=0.009).

[2] = system: herpes labialis outbreaks; assay: Phase 2 multi-center placebo-controlled study of single dose SADBE in recurrent herpes labialis; format: in vivo, human
Method: After institutional review board approval and written informed consent, this study was conducted at five centers in subjects with four or more herpes labialis episodes in the previous 12 months. Subjects were randomized to receive either (1) one dose of 2% SADBE in DMSO on day 1, (2) 2% SADBE on day 1 and a second lower dose (0.5%) “booster” on day 22, or (3) dimethylsulfoxide (DMSO) vehicle only on days 1 and 22. All subjects were followed for 1 year.
Doses were applied by dipping a cotton swab in a blindly labeled 1 ml vial of liquid study medication, then swabbing a spot on the inner aspect of the upper arm over an area of about 10 to 15 mm diameter encircled by petroleum jelly. After application, the spot was covered by TEGADERM™ dressing, and subjects were advised to remove the dressing and wipe the spot with a wet cloth 3 hours later. The weight of the vial of study medication with the vial standing in it was measured immediately before and immediately after dosing each subject. The difference was the net mass of drug applied. In most cases, 10 mg to 20 mg of drug solution was applied to the arm.

[3] = Toxicity evaluation (body weight, food consumption, clinical observation, histopathology) in guinea pig; format: in vivo
Text: (§1) The purpose of this nonGLP study was to evaluate the effect of various concentrations of SADBE delivered via dermal patch, for dose site irritation and toxicity endpoints such as body weights, group food consumption, clinical observation, pre-termination clinical pathology, gross and histopathology.
Thirty (30) guinea pigs (15 female and 15 male) were utilized for this nonGLP study. Prior to and post dosing (dermal patches loaded with 20 microliters of 2, 6, or 18% SADBE drug solution) body weights, group food consumption, and Draize scoring for erythema, eschar formation, and edema at the dose site were be recorded. The dermal patch loaded with SADBE was applied to animals, and left in place for ˜12 hours plus/minus 1 hour. Following the ˜12 hour dosing period, patch sites was assessed by Draize scoring. […] After the 28 days assessment period, re challenge was performed, a second patch (not treated during the induction phase) was applied and assessed by Draize scoring.
At the end of the survival period, blood was collected for standard hematology and serum chemistry analysis, and the animals humanely euthanized. The second dose site and cervical lymph nodes were collected at necropsy for further histopathological evaluation. Dose site was explanted, fixed, and embedded. Dose sites were examined histologically and an evaluation of cell type presence and tissue response conducted.

[4] = Toxicity evaluation (body weight, food consumption, necropsy, histopathology) in Gottingen mini-pig; format: in vivo, Gottingen miniswine
Text: as §1
A total of 6 Gottingen miniswine (3 female and 3 male) was used in this nonGLP study. Prior to dosing, the baseline body weights, group food consumption, and Draize scoring (see tables 1 and 2) for erythema and eschar formation and edema at the future dose site were recorded. A dermal patch (1 patch/animal) loaded with 20 microliters of 2, 6, or 18% SADBE drug solution was applied to animals, and left in place for ˜12 hours. Following the ˜12 hour dosing period, patch sites was assessed by Draize scoring as in Example 5, 5×/week for 21 days. […] After the 25 day assessment period, the animals were re-challenged and a second dosing and assessment phase performed for 30 days. At the end of the survival period, animals were humanely euthanized and a complete necropsy was performed. The test article vials used to prepare patches and mini-pig exposed patches were collected after application to determine SADBE content and SADBE degradation product squaric acid monobutyl ester (SAMBE) using HPLC at Squarex's Laboratory.
Dose site was explanted, fixed, and embedded. Dose sites were examined histologically and an evaluation of cell type presence and tissue response conducted.

[5] = any dose tested (2%, 6%, 18% SADBE patch)
[6] = female, Group 1, 2% SADBE patch
[7] = female, Group 3, 18% SADBE patch
[8] = any dose (2%, 6%, 18% SADBE patch)

CCCCOc1c(OCCCC)c(=O)c1=O [SADBE, squaric acid dibutyl ester]
median time to next herpes labialis outbreak after the sensitization dose ([1]; 2.0% SADBE sensitization dose on arm, Kaplan-Meier, placebo 40 days, P=0.009): more than 122 days
adverse event: itching and redness at the sensitization site ([1]; 2.0% SADBE, placebo 2 patients): 13 patients
adverse event: autosensitization dermatitis ([1]; exposed to the SADBE sensitization dose for 24 hours): 1 patient
tolerability ([1]; overall, patients): well tolerated
patients who did not experience another outbreak after sensitization ([1]; patients who received 2.0% SADBE for sensitization): 16 of 28
time to next outbreak from day 43 to 121 ([2]; 1-dose group (2% SADBE in DMSO day 1) vs placebo, p=0.024): superior to the placebo group
proportion of subjects with an outbreak in days 43-121 ([2]; 1-dose group (9/39), placebo 46%, p=0.036): 23%
mean number of outbreaks in days 43-121 ([2]; 1-dose group, ± standard error, placebo 0.610±0.068, p=0.011): 0.231±0.125
average number of moderate or severe outbreaks over days 1-365 ([2]; 1-dose, placebo 1.341±1.76, p=0.04): 0.641±0.931
average number of moderate or severe outbreaks over days 43-121 ([2]; 1 dose of SADBE, placebo 0.390±0.703, p=0.04): 0.128±0.339
outbreak measures vs placebo, 2-dose group ([2]; 2% SADBE day 1 and 0.5% booster day 22): superior to placebo these same measures, but not significantly so
severity of administration site reactions (most common adverse event) ([2]; topical 2% SADBE): all mild or moderate
time to resolution of administration site reactions ([2]; topical 2% SADBE): ≤ 3 months
lymph node sections ([3]; all SADBE treated groups (summary)): within normal limits
clinical monitoring observations ([3]; all doses): did not reveal any significant abnormalities
histopathology observed at all SADBE treated sites (summary) ([3]; all doses): mild to moderate parakeratosis, minimal multifocal necrosis and fatty infiltration
systemic toxicity ([3]; all doses, post-dosing and daily throughout study): no signs of systemic toxicity
effect on body weight [3, 5]: no significant effect; also recorded: not affected
effect on food consumption [3, 5]: no significant effect; also recorded: not affected
histopathology of treated skin sites: inflammatory infiltrates in the dermis [3, 6]: multifocal rare to mild infiltrates of inflammatory cells
histopathology of treated skin sites: necrosis, neovascularization, fibrosis, fatty infiltration [3, 6]: Necrosis, neovascularization, fibrosis and fatty infiltration were not noted
histopathology of treated skin sites: inflammatory infiltrates in the dermis ([3]; female, Group 2, 6% SADBE patch): multifocal rare to mild infiltrates of inflammatory cells
histopathology of treated skin sites: necrosis, neovascularization, fatty infiltration ([3]; female, Group 2, 6% SADBE patch, narrow fibrous band in three animals): Necrosis, neovascularization and fatty infiltration were not noted
histopathology of treated skin sites: inflammatory infiltrates in the dermis [3, 7]: multifocal rare to mild infiltrates of inflammatory cells
histopathology of treated skin sites: necrosis, neovascularization [3, 7]: Minimal multifocal necrosis and neovascularization was noted
histopathology of treated skin sites: inflammatory infiltrates in the dermis ([3]; male, Group 1, 2% SADBE patch): multifocal rare infiltrates of inflammatory cells
histopathology of treated skin sites: necrosis, neovascularization, fibrosis, fatty infiltration ([3]; male, Group 1, 2% SADBE patch): Necrosis, neovascularization, fibrosis and fatty infiltration were not noted
histopathology of treated skin sites: inflammatory infiltrates in the dermis ([3]; male, Group 2, 6% SADBE patch): multifocal rare to mild infiltrates of inflammatory cells
histopathology of treated skin sites: necrosis, neovascularization, fibrosis, fatty infiltration ([3]; male, Group 2, 6% SADBE patch): Necrosis, neovascularization, fibrosis and fatty infiltration were not noted
histopathology of treated skin sites: inflammatory infiltrates in the dermis ([3]; male, Group 3, 18% SADBE patch): multifocal rare to heavy infiltrates of inflammatory cells
histopathology of treated skin sites: necrosis, neovascularization ([3]; male, Group 3, 18% SADBE patch): Minimal, multofocal necrosis and mild multifocal neovascularization was noted
histopathology of treated skin sites: inflammatory infiltrates in the dermis ([4]; 2% & 6% SADBE): multifocal rare to mild infiltrates of inflammatory cells
histopathology of treated skin sites: inflammatory infiltrates in the dermis ([4]; 18% SADBE): multifocal mild to heavy infiltrates of inflammatory cells
histopathology: necrosis and fatty infiltration ([4]; all SADBE treated sites): minimal multifocal necrosis and fatty infiltration were observed
Cervical and Inguinal lymph node sections ([4]; all animals, all doses): within normal limits
gross necropsy ([4]; all doses): No abnormalities were noted
histopathology: parakeratosis ([4]; all sections examined): mild to moderate parakeratosis
effect on body weight [4, 8]: no significant effect
effect on food consumption [4, 8]: no significant effect
histopathology: neovascularization and fibrosis ([4]; any tissue sections examined): Neovascularization and fibrosis was not noted
